The record followed here is patent publication US20220098160A1, “NOVEL CDK 8/19 INHIBITORS” (BIOCAD, priority 2018, published 2022).

In general, Papp A→B refers to how fast a substance crosses the layer from the apical side. A low value points to poor permeation. What is called efflux ratio is a quotient of directional permeabilities that is used to spot active efflux. By CC50 is commonly meant the concentration that lowers cell viability or growth by half. The IC50 is the concentration that gives 50% inhibition. As usually defined, the microsomal CLint is the rate of metabolic loss divided by the concentration. Read a low microsomal CLint as slow turnover.

Data set [1] is described as follows: Permeability through a monolayer of Caco-2 cells. The data set is classed as in vitro ADME. As to conditions: human. The protocol: Determining the permeability through a monolayer of Caco-2 cells makes it possible to assess the ability of the substances to penetrate biological membranes by means of both active and passive transport.
The intestinal epithelial cells (Caco-2) were cultured using filter inserts ([…], BD Falcon with High Density) for 21 days, after which the monolayer integrity was checked using a Lucifer Yellow dye (Sigma-Aldrich, USA) according to the standard protocol. When setting up an A→B transfer (“intestinal lumen”—“blood flow” transfer), solutions of the tested substances were introduced in pH 6.5 buffer (HBSS, 10 mM HEPES, 15 mM glucose solution) at a concentration of 10 μM into the upper chamber, while the lower chamber was filled with pH 7.4 buffer (HBSS, 10 mM HEPES, 15 mM Glucose solution, 1% BSA). When setting up a B→A transfer (“blood flow”—“intestinal lumen” transfer), the upper chamber was filled with pH 6.5 buffer, and the solutions of the tested substances were introduced in pH 7.4 buffer at a concentration of 10 μM into the lower chamber. Propranolol, which is a high permeability substance, was used as a control.
After incubation for 2 h at 37° C. in an atmosphere containing 5% CO2, the amounts of the tested substances in the upper and lower chambers were determined by the HPLC method using an Agilent1200 chromatograph (Agilent, USA) with preliminary precipitation of proteins with acetonitrile. Chromatographic analysis was performed using a gradient elution mode at a flow rate of 1 ml/min. Peak areas corresponding to the compounds were determined on chromatograms. Based on the peak area values of the compound in calibration standards, compound concentrations in the initial solution and in the samples taken from the wells of the upper and lower chambers were determined.
Permeability through a layer of cells (Papp) was calculated based on the formula:
Papp=(C(t)*V)/(C(θ)*t*Area), where
Papp is the effective permeability constant, m/s V is the solution volume (0.8 ml in the A→B test, and 0.2 ml in the B→A test), ml Area is the surface area of the membrane (0.33 cm^2), cm^2 t is the incubation time (7,200 s), s C(θ) is the concentration of the initial solution, μM C(t) is the concentration of the solution after 2 hours (in the sample from the lower chamber well (test A→B), and in the sample from the upper chamber well (test B→A)), μM.
The value was calculated using the following formula:
efflux=Papp B-A/Papp A-B, where
Papp A-B is the permeability value during direct assay (A→B); Papp B-A is the permeability value during reverse assay (B→A);

Data set [2] in a line: General cytotoxicity test on HepG2 cells. The note with it: human, 72 hours incubation, 200 to 0.78 μM, average of several runs, read-out: Hep-G2 CC50. The data set is classed as cell-based. As to the method: The CC50 value was determined in a cytotoxicity test. The experiments were performed using HepG2 cells (hepatocellular carcinoma, ATCC© HB-8065™). The cells were seeded into 96-well plates (Corning, #3599) at a concentration of ˜20×10^3 cells per 100 μl of medium per well, and incubated for 72 hours with the introduced compounds in the concentration range from 200 to 0.78 μM. Cell viability was evaluated according to the method described above.

The target in data set [3] is T1, CDK8/CyclinC (Homo sapiens, UniProt P49336).
T1 construct: purchased ThermoFisher PR7261B
Description: LanthaScreen TR-FRET binding to recombinant CDK8 in complex with Cyclin C. As to conditions: CDK8/CyclinC 5 nM, Tracer 236 10 nm, average of several runs; read-out: CDK8-CycC IC50. The protocol:
The ability of the compounds described herein to bind to the CDK8 protein was determined using the LanthaScreen method (ThermoFisher).
The measurements were conducted in a reaction volume (15 μl) using a 384-well plate (Corning, #CLS4513). CDK8/CyclinC enzyme (ThermoFisher, #PR7261B) was mixed with Anti-His-tag-Biotin antibodies (ThermoFisher, #PV6090), Streptavidin-Eu (ThermoFisher, #PV6025), and the resulting mixture was added to the wells of the plate in the amount of 5 μl per well. The final concentrations of the substances were as follows: CDK8/CyclinC—5 nM, Streptavidin-Eu—3 nM, Anti-His-tag-Biotin—3 nM. Staurosporine was used as a control inhibitor, and a 0.1% solution of dimethyl sulfoxide (DMSO) in the reaction buffer containing 250 mM HEPES (pH 7.5), 50 mM MgCl2, 5 mM EGTA, and 0.05% Brij-35 was used as a blank.
Tested inhibitors and controls were added to the corresponding wells in the amount of 5 μl per well. The plate was incubated at room temperature for 20 minutes. […] The final concentration of the tracer was 10 nm. A reaction buffer was used as a negative control instead of the tracer solution. The plate was incubated for 40 minutes at 25° C. Then the TR-FRET signal was measured on a SPARK20 plate reader (Tesap, Switzerland) according to the manufacturer's recommendations, and converted to the amount of kinase-bound tracer. The IC50 value was determined using the SparkControl Magellan 1.2 program (Tesap, Switzerland) by approximating the experimental points using a four-parameter model with the Levenberg-Marquardt optimization (Table 11).
(Time-resolved FRET reads energy transfer from a long-lived donor to a nearby acceptor.)

The nature of data set [4]: Enzymatic stability in human liver S9 fractions. The data set is classed as in vitro ADME. The note with it: pooled human liver S9 fraction; 0.5 mg/ml human liver S9, 10 μm compound, 37° C., pH 7.4. As to the method:
Determining enzymatic stability of the candidates made it possible to evaluate the resistance of the compounds of the present invention to the exposure to biotransformation enzymes.
The enzymatic decomposition rate of the compounds was determined by incubation in a solid-state thermostat at 37° C. of a reaction mixture containing 0.5 mg/ml of pooled S9 fractions of the human liver (XenoTech, USA, cat. # H0610), 10 μm compounds, 2 mM β-nicotinamide adenine dinucleotide (Carbosynth, UK, cat. # NN 10871), and 4 mM magnesium chloride in 0.1 M sodium phosphate buffer (pH=7.4). The reaction was stopped with acetonitrile based on 100 μl of acetonitrile per 100 μl of the reaction mixture. After stopping the reaction, the samples were centrifuged for 10 minutes at 10,000 rpm. The supernatant was analyzed by chromatography using an Agilent1200 chromatograph (Agilent, USA). Chromatographic analysis was performed in a gradient elution mode at a flow rate of 1 ml/min. A logarithm of the peak area of the substance was plotted versus time. The dependent coefficient of this line corresponded to the elimination rate constant (k), which was used to calculate the half-life of the drug (t1/2) and decomposition rate (CLint): […]

T1 sequence (P49336 whole entry): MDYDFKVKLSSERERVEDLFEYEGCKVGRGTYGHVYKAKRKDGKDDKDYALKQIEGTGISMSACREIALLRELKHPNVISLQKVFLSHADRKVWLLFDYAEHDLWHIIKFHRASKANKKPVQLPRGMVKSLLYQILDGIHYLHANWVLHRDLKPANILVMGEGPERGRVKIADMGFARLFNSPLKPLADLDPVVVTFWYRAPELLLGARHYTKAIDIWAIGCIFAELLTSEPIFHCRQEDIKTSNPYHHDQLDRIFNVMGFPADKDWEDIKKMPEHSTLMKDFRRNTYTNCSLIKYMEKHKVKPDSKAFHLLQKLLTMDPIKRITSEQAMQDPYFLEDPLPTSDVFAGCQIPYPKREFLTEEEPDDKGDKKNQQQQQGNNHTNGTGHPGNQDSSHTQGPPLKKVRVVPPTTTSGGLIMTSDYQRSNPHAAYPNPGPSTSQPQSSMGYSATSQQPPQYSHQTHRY
T1 sequence (P24863 whole entry partner): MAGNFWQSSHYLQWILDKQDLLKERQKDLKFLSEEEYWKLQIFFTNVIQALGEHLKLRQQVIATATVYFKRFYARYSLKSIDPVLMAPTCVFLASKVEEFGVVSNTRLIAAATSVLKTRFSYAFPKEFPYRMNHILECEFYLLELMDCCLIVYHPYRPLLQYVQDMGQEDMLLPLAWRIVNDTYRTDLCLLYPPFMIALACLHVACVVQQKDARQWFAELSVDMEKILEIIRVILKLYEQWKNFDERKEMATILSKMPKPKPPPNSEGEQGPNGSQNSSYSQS

For `CN1CCN(C(=O)c2ccc3cc(CCNc4ccnc5ccc(C#N)cc45)ccc3c2)CC1` [Compound 5, 4-((2-(6-(4-methylpiperazine-1-carbonyl)naphth-2-yl)ethyl)amino) quinoline-6-carbonitryl], the Papp A→B at 2 h, 10 μM in data set [1] (A→B, pH 6.5 upper / pH 7.4 lower chamber, 2 h at 37° C.) stood at 7.1 ×10⁻⁶ cm/s. In addition, in data set [1] (Papp B-A/Papp A-B, 2 h), the efflux ratio at 2 h, 10 μM was 2. The CC50 at 72 h in data set [2] is greater than 60000 nM. Moreover, in data set [3], the IC50 came out at 6.07 nM. In data set [4], this compound registered a microsomal CLint at 10 μM of 7.2 µL/min/mg.
